Measurements: patent publication US11241450B2, “Uridine diphosphate derivatives, prodrugs, compositions and uses thereof” (TUFTS UNIVERSITY, priority 2012, dated 2022)
Counter-ions that a name gives are not always drawn. Like-named read-outs stand apart in the source and are kept apart here. Values belong to the molecule of their own block, whether it stands above or below them.

Experiments:
PSAPP mice [1] = test: Contextual fear conditioning test; type: in vivo, mouse
Description: (§1) Heterozygous mutant (K670N/M671L) APP (50% C57B6, 50% SJL) transgenic mice were crossed with heterozygous mutant (A246E) PS-1 (50% C57B6, 50% SJL) transgenic mice to generate heterozygous PSAPP transgenic mice (also referred to as PS-1/APP or PSAPP+/+ mice), which refers to animals heterozygous for the PS-1 A246E transgene and the APP K670N/M671L transgene. Non-transgenic control animals were littermates (also referred to as PSAPP_−/− mice) generated in the breeding for PSAPP transgenic animals. Mouse genotype was determined by Polymerase Chain Reaction (PCR). Both male and female mice of 6-7 months old were used for the experiments below. All animal experiments were performed in accordance with the Tufts Animal Care and Use Committee and with national regulations and policies.
On day one, animals were trained in a fear conditioning apparatus for a total of 7 minutes with a two-pairing paradigm of cue and mild foot shock (a 30-s acoustic-conditioned stimulus, 80 dB; a 2-s shock stimulus, 0.5 mA). To evaluate contextual fear learning, the animals were returned to the training context 24 hours post-training, and freezing behavior was scored for 5 minutes. Freezing behavior was monitored by MotorMonitor (Hamilton Kinder) and scored every 5 seconds.
In this study, the fear conditioning associative learning paradigm was used as a rapid cognition assay for PSAPP mice. This study allowed us to probe cognitive function with a single training day followed in 24 hours by tests for contextual and cued fear learning. Contextual fear learning is dependent upon a brain area that has been implicated as a locus for cognitive decline in AD: the hippocampus. Two pairings of CS-US for fear conditioning were followed 24 hours later by testing for contextual and cued fear learning. Previous studies have reported that PSAPP animals appear to have a selective hippocampus-dependent impairment in associative learning following two pairings of conditioned stimuli for fear conditioning.
This represents a decrease in the cognitive impairment observed in the untreated mice.

[2] = system: amyloid plaques in PSAPP mice; test: Two-photon in vivo imaging of methoxyX04-labeled amyloid plaques in barrel cortex; parameters: species or system mouse; details: acute i.c.v. injection
Description: as §1
In this study, PSAPP mice were anesthetized using isoflurane and a thin-skull preparation was used to minimize the surface damage. Amyloid plaques were visualized with methoxyX04 labeling and blood plasma was labeled with Rhodamine dextran to facilitate re-localization of the same imaging area. Stack images were obtained using a two-photon system (Prairie Technologies) with excitation at 850 nm. The emission was detected by external photomultiplier tubes (525/70; DLCP 575; 607/45 nm).
Animals were anesthetized and immobilized in a stereotaxic frame. For each injection, 1 μl of 10 mM UDP or other suitable compounds in artificial cerebrospinalfluid (ACSF) as the vehicle were injected intraventricularly using the following coordinates: AP 0.2 mm, ML 1 mm, and DV 2.2 mm.
To evaluate the effect of UDP on plaque burden, two-photon microscopy was used to assess the amyloid plaques in the barrel cortex in living PSAPP mice. Amyloid plaques were stained by systemically administered methoxy-X04. One day prior to imaging, PSAPP mice were injected with methoxyX04 to label the amyloid plaques. On the imaging day, to facilitate the re-location of the same imaging area, blood plasma was labeled with Rhodamine dextran. Images were obtained from the same start- and end-point to ensure the same image volume. […]

PSAPP mice [3] = test: Hippocampal long-term potentiation (LTP) recording; type: in vivo, mouse; details: acute treatment, HFS
Procedure: Hippocampal slices (350 μm thick) were prepared from 6-month-old PSAPP mice. Baseline responses were obtained every 10 seconds and Input-output (I/O) curves, paired-pulse modification and LTP were successively measured. The stimulation intensity was set to a level that gives a value of 30% of the maximum obtained. LTP were induced by high frequency stimulation (HFS, 100 pulses at 100 Hz, four times) or by theta-burst stimulation (TBS, 10 bursts at 5 Hz, repeated 10 times in 15 s intervals).
Accumulated evidence has shown that amyloid peptides naturally secreted or isolated from Alzheimer's brains impair synaptic plasticity, especially hippocampal long-term potentiation (Walsh et al., 2002). Therefore, we further performed LTP recordings in PASPP mice and investigated whether P2Y6 receptor-mediated plaque clearance affects synaptic plasticity. […] First, it was observed that LTP at the schaffer collateral synapse within the CA1 region was depressed in PSAPP mice, as compared with littermates (FIG. 8(A)).

[4] = system: amyloid plaques in PSAPP mice; test: Postmortem immunohistochemistry of plaque load in cortex and hippocampus; type: in vivo, mouse; details: for decrease in plaque load, cortex / decrease in plaque load, hippocampus: acute i.c.v.
Description: as §1
Mice were perfused transcardially with 4% paraformaldehyde and 40 μm Coronal sections were collected. Sections were sequentially incubated in 0.3% H2O2 for 10 minutes, blocking solution for 2 hrs, blocking solution containing the primary antibody (rabbit anti-beta1-42; rabbit anti-beta1-40, from Chemicon International and rat anti-CD45) for 48 hours at 4° C., and blocking solution containing biotinylated antibody or fluorescently-labeled antibody for 2 hours at room temperature. Sections were visualized in a bright field microscope or a confocal microscope, and the optical density was obtained using MetaMorph software.
After repeated imaging, brains were fixed and subjected to postmortem immunohistochemistry with amyloid beta specific antibodies β1-40 and β1-42 to evaluate the plaque load (area occupied by immunostaining of plaque) in cortex and hippocampus.
PSB0474 was systemically administered to PSAPP mice via intraperitoneal injection for 2, 4 and 6 consecutive days. In one group, prior to evaluation and following to administration for 6 consecutive days, treatment was suspended for two weeks (6+2 weeks group). Brains were then fixed and plaque load was evaluated by immunostaining with the amyloid beta specific antibodies: β1-40 and β1-42. Representative images of plaque load in cortex and hippocampus from animals that received injections of PSB0474 according to the foregoing injection schedules are shown in FIG. 5(A)-(D). […] Whereas, when administration of PSB0474 was stopped for 2 weeks following six consecutive days of treatment (denoted as the 6+2 weeks group), β1-40 staining rebounded; although to a level lower than observed in mice treated with saline as a vehicle control. FIGS. 6A and 6B depict the reduction in plaque load (%) the cortex and hippocampus, respectively, in PSAPP mice after treatment with 3-phenacyl-UDP for 2, 4, or 6 consecutive days, as assayed by staining with the β1-40 antibody. FIGS. 6C-6F depict data obtained following administration of different dosages of PSB0474.
To generate these graphs showing plaque load, mice were euthanized, brain sections cut and antibodies directed against Aβ 42 were used to disclose Aβ plaques. Images were acquired digitally and an algorithm was applied to threshold the image so that plaques were isolated from the background. The algorithm then calculated the percent area of the field of view occupied by the plaques.

P2Y2 receptor = biological target: T1, P2Y2 receptor (Homo sapiens, UniProt P41231); test: Ca2+ mobilization with fluo-4 in 1321N1 astrocytoma cells expressing P2Y2; type: cell-based; details: 1321N1 cells expressing P2Y2
T1 construct: expressed in transfected cells; host or cells: 1321N1 human astrocytoma cells
Procedure: (§2) Synthetic ligands were tested for activation of P2Y6 receptor by measuring receptor induced Ca^2+ changes with the fluorescent Ca^2+ indicator fluo-4. 1321N1 human astrocytoma cell lines either expressing P2Y2, P2Y4 or P2Y6 receptors were plated into 24-well plates. Two days after plating, fluorometric measurements were made and responses of cells to a serial dilution of ligands were determined. P2Y6 receptor-mediated Ca^2+ fluorescent change was determined by normalized accumulation of fluorescent change of 3 timepoints after ligand administration subtracted by value from ACSF control. Changes in fluorescent intensity were plotted corresponding to ligand concentration in GraphPad. Dose-response curve and EC50 for each ligand was estimated using nonlinear curve fit and Sigmoidal dose-response analysis. […]
(§3) Synthetic ligands were tested for activation of P2Y6 receptor by measuring receptor induced Ca^2+ changes with the fluorescent Ca^2+ indicator fluo-4, and results are shown in FIG. 10(A)-(K). […] Two days after plating, fluorometric measurements were made and responses of cells to a serial dilution of ligands were determined. P2Y6 receptor-mediated Ca^2+ fluorescent change was determined by normalized accumulation of fluorescent change of 3 timepoints after ligand administration subtracted by value from ACSF control. […]

P2Y4 receptor = biological target: T2, P2Y4 receptor (Homo sapiens, UniProt P51582); test: Ca2+ mobilization with fluo-4 in 1321N1 astrocytoma cells expressing P2Y4; type: cell-based; details: 1321N1 cells expressing P2Y4
T2 construct: expressed in transfected cells; host or cells: 1321N1 human astrocytoma cells
Procedure: as §2, §3

P2Y6 receptor [5] = biological target: T3, P2Y6 receptor (Homo sapiens, UniProt Q15077); test: Activation of P2Y6 receptor: Ca2+ changes with fluo-4 in 1321N1 astrocytoma cells expressing P2Y6; type: cell-based; parameters: expressed in transfected cells; host or cells: 1321N1 human astrocytoma cells
Procedure: Synthetic ligands were tested for activation of P2Y6 receptor by measuring receptor induced Ca^2+ changes with the fluorescent Ca^2+ indicator fluo-4. 1321N1 human astrocytoma cell lines either expressing P2Y2, P2Y4 or P2Y6 receptors were plated into 24-well plates. Two days after plating, fluorometric measurements were made and responses of cells to a serial dilution of ligands were determined. P2Y6 receptor-mediated Ca^2+ fluorescent change was determined by normalized accumulation of fluorescent change of 3 timepoints after ligand administration subtracted by value from ACSF control. Changes in fluorescent intensity were plotted corresponding to ligand concentration in GraphPad. Dose-response curve and EC50 for each ligand was estimated using nonlinear curve fit and Sigmoidal dose-response analysis. […] The sodium salt of compound 5 was only effective at elevating Ca^2+ levels when applied to cells expressing P2Y6 receptors and not effective in P2Y2, or P2Y4 receptor expressing cells. The ability of the sodium salt of compound 5 to elevate Ca^2+ signals in P2Y6 expressing cells was attenuated by addition of the P2Y6 receptor antagonist MRS2578.
as §2, with “fluo-4, and results are shown in FIG. 10(A)-(K).” for “fluo-4.”

plasma cytokines = test: Plasma cytokine levels after 7 daily i.p. injections; type: in vivo, mouse; details: 1 μg/kg i.p., 7 days
Procedure: Inflammatory cytokines were assessed in mouse plasma of both wild type and PS1/APP mice (Alzheimer's mouse model) and the impact of intraperitoneal delivery of compound 5 on circulating cytokines was assessed. Seven daily intraperitoneal injections of 1 μg/kg of compound 5 were delivered to mice. 24 hours following the final injection, plasma was collected. Wildtype, age matched littermates and PSAPP mice (>6 months of age) were treated either with vehicle (phosphate buffered saline) or vehicle containing compound.

P2Y6 receptor [6] = biological target: T3, P2Y6 receptor; details: cited from earlier work
PSAPP mice [7] = test: Tolerability of increased dose in PSAPP mice; type: in vivo, mouse; details: 1000× increase in dose
[8] = i.p. daily for 7 consecutive days
[9] = β1-42 antibody, vs vehicle control

T3 sequence (Q15077 whole entry): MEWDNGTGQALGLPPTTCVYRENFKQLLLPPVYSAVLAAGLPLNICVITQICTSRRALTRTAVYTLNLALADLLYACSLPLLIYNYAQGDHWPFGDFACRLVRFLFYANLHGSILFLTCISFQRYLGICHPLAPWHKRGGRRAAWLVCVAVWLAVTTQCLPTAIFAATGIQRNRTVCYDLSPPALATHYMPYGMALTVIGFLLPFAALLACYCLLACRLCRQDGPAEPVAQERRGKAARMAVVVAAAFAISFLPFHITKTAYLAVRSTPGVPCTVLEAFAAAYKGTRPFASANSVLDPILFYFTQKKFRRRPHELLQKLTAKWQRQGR
T1 sequence (P41231 whole entry): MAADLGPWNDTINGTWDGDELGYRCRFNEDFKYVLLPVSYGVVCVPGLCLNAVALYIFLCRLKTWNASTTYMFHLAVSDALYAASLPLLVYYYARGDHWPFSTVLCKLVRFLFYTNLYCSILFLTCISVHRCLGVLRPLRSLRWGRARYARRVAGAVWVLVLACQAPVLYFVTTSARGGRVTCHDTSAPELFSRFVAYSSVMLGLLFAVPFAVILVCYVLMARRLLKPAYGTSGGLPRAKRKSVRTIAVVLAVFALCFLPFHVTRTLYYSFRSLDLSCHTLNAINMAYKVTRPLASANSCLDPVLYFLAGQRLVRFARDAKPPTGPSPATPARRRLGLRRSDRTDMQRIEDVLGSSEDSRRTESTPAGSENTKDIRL
T2 sequence (P51582 whole entry): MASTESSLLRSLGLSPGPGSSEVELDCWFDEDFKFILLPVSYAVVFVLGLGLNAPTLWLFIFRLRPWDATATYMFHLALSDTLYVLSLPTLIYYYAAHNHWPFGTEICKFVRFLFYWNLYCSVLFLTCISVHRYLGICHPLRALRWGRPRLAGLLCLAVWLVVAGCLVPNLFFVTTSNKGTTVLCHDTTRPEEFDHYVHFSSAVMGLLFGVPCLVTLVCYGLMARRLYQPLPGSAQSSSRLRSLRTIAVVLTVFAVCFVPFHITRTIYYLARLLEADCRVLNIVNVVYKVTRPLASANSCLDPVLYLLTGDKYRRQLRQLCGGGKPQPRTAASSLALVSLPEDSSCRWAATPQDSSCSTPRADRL

Structure (SMILES): O=c1ccn([C@@H]2O[C@H](COP(=O)(O)OP(=O)(O)O)[C@@H](O)[C@H]2O)c(=O)[nH]1 [UDP, uridine diphosphate]
freezing behavior during the first 4 minutes (PSAPP mice [1]; acute i.c.v., 5 minute testing time): increased | total freezing percentage (PSAPP mice [1]; acute i.c.v., contextual test): 49%±5% | reduction in plaque load ([2]; day 4 vs day 1, barrel cortex): 17.2% | reduction in the number of plaques ([2]; day 4 vs day 1, barrel cortex): 12.6% | reduction in cross-sectional area of individual identified plaques ([2]; second imaging session): 18.2% | LTP deficit at CA1 (PSAPP mice [3]): reversed this LTP deficit | field excitatory postsynaptic potential (fEPSP), last 15 min potentiation (PSAPP mice [3]): significant increase | decrease in plaque load, cortex ([4]; β1-40 antibody): 60% | decrease in plaque load, hippocampus ([4]; β1-40 antibody): 62% | decrease in plaque load, cortex ([4]; β1-42 antibody): 48% | decrease in plaque load, hippocampus ([4]; β1-42 antibody): 47%

elevating Ca2+ levels in P2Y2 receptor expressing cells (P2Y2 receptor): not effective | elevating Ca2+ levels in P2Y4 receptor expressing cells (P2Y4 receptor): not effective | elevating Ca2+ levels in cells expressing P2Y6 receptors (P2Y6 receptor [5]; 1321N1 cells expressing P2Y6): effective | EC50 (P2Y6 receptor [5]; 1321N1 cells expressing P2Y6, fluo-4 Ca2+): 12 nM | ability to elevate Ca2+ signals on addition of P2Y6 receptor antagonist MRS2578 (P2Y6 receptor [5]; P2Y6 expressing cells, plus MRS2578): attenuated
Structure (SMILES): O=c1ccn(C2OC(COP(=O)(O)OP(=O)(O)O)[C@H](O)C2O)c(=O)n1Cc1noc2ccccc12 (some centres unmarked) [sodium salt of compound 5]

Structure (SMILES): O=c1ccn([C@@H]2O[C@H](COP(=O)(O)OP(=O)(O)O)[C@H](O)C2O)c(=O)n1Cc1noc2ccccc12 (some centres unmarked) [Compound 5]
freezing behavior relative to wildtype animals (PSAPP mice [1]; [8]): restored to a level equivalent to that observed in wildtype animals | total freezing percentage in the context test (PSAPP mice [1]; [8]): increased | plasma level of IL-2 (plasma cytokines; PSAPP mice): reduced | plasma level of IL-7 (plasma cytokines; PSAPP mice): reduced | plasma level of IL-9 (plasma cytokines; PSAPP mice): reduced | plasma level of IL-10 (plasma cytokines; PSAPP mice): reduced | plasma level of IL-15 (plasma cytokines; PSAPP mice): reduced | plasma level of Il-1β (plasma cytokines; PSAPP mice): reduced | plasma level of MIG (plasma cytokines; PSAPP mice): reduced | plasma level of MIP1α (plasma cytokines; PSAPP mice): reduced | plasma level of IL-2 (plasma cytokines; wildtype animals): reduced | plasma level of IL-10 (plasma cytokines; wildtype animals): reduced | Aβ plaque load (%) in the cortex [4, 9]: substantial decrease | Aβ plaque load (%) in the hippocampus [4, 9]: substantial decrease

Structure (SMILES): O=C(Cn1c(=O)ccn(C2OC(COP(=O)(O)OP(=O)(O)O)C(O)C2O)c1=O)c1ccccc1 (centres unmarked) [3-phenacyl-UDP]
selectivity for P2Y6 receptor (P2Y6 receptor [6]): > 500 fold | EC50 (P2Y6 receptor [6]; read-out: EC50, P2Y6 receptor agonist): 70 nM | total freezing percentage in context test (PSAPP mice [1]; chronic injection, two doses): increased | memory deficit in contextual fear conditioning test (PSAPP mice [1]; one week treatment with 1 μg/kg): rescued the memory deficit | detrimental effects to the animal (PSAPP mice [7]): did not cause detrimental effects | effects on the efficacy endpoint at the higher dose ([4]; 1 mg/kg): smaller effects | β1-40 staining after stopping administration ([4]; 6 consecutive days i.p., then stopped for 2 weeks): rebounded | immunoreactivity of β1-40 in cortex and hippocampus ([4]; i.p. for 4 and 6 consecutive days): significantly decreased
